Reference: patent EP0266896A1, “7-( (Meta-substituted) phenylglycine) 1-carba-1-dethiacephalosporins” (priority 1986, dated 1988)
Counter-ions that a name gives are not always drawn. Like-named read-outs stand apart in the source and are kept apart here.

Key:
Escherichia coli TEM = experiment: MIC by standard agar dilution test; format: cell-based; settings: β-lactamase producer
Text: (§1) The antibiotic activity of selected compounds of Formula I and, for comparison, a compound of related structure, is illustrated by the following in vitro test data. In Table I, the minimum inhibitory concentrations (MIC) for the compounds against a wide range of gram-positive and gram-negative bacteria are presented. The MIC values were obtained by the standard agar dilution test method. The excellent in vitro activity of the claimed compounds is especially surprising in light of their high solution stability. High solution stability of a β-lactam compound was until now thought to indicate low acylating ability of the β-lactam, and thus low antibacterial activity for the compound.

[1] = tested on: Hemophilus influenzae C.L.; experiment: MIC by standard agar dilution test; format: cell-based
Text: as §1

Salmonella typhi 1335 = experiment: MIC by standard agar dilution test; format: cell-based
Text: as §1

Salmonella typhi X514 = experiment: MIC by standard agar dilution test; format: cell-based
Text: as §1

Shigella sonnei N9 = experiment: MIC by standard agar dilution test; format: cell-based
Text: as §1

[2] = tested on: Staphylococcus aureus S13E; experiment: MIC by standard agar dilution test; format: cell-based; settings: β-lactamase producer, penicillin G resistant
Text: as §1

[3] = tested on: Staphylococcus aureus V41; experiment: MIC by standard agar dilution test; format: cell-based; settings: Staphylococcus aureus V41, penicillin G resistant
Text: as §1

[4] = tested on: Staphylococcus epidermidis EPI1; experiment: MIC by standard agar dilution test; format: cell-based; settings: Staphylococcus epidermidis EPI1, methicillin resistant
Text: as §1

[5] = tested on: Staphylococcus epidermidis EPI2; experiment: MIC by standard agar dilution test; format: cell-based; settings: Staphylococcus epidermidis EPI2, methicillin resistant
Text: as §1

[6] = tested on: Streptococcus pneumoniae Park I; experiment: MIC by standard agar dilution test; format: cell-based
Text: as §1

[7] = Intravenous pharmacokinetics in the rat, plasma levels monitored by bioassay with an E. coli strain
Protocol: (§2) The tests were performed by methods well-recognized in the art.
(§3) Specifically, the male Sprague-Dawley rats were administered a 20 mg/kg dose intravenously. The plasma levels of the administered compound were monitored by bioassay with an E. coli strain.

[8] = rat, in vivo, iv, 20 mg/kg
Protocol: as §2, §3

Row | Compound | Minimum Inhibitory Concentration (Salmonella typhi 1335) | Minimum Inhibitory Concentration (Salmonella typhi X514) | Minimum Inhibitory Concentration (Shigella sonnei N9) | Minimum Inhibitory Concentration [2] | AUC (area under the curve) [8] | Half-Life [8] | other results
1 | CS(=O)(=O)Nc1cccc([C@@H](N)C(=O)N[C@@H]2C(=O)N3C(C(=O)O)=C(Cl)CC[C@H]23)c1.O=C(O)C(F)(F)F [Example 1, 7β-[2ʹ-(R)-2ʹ-(m-(Methylsulfonamido)phenyl)-2ʹ-Aminoactamido]-3-Chloro-3-(1-Carba-1-Dethiacephem)-4-Carboxyli c Acid Trifluoroacetate Salt] | 0.5 µg/mL | 0.5 µg/mL | 0.5 µg/mL | 2 µg/mL |  |  | Minimum Inhibitory Concentration (Escherichia coli TEM): 0.25 µg/mL; Minimum Inhibitory Concentration [1]: 2 µg/mL; Minimum Inhibitory Concentration [3]: 4 µg/mL; Minimum Inhibitory Concentration [4]: 4 µg/mL; Minimum Inhibitory Concentration [5]: 2 µg/mL; Minimum Inhibitory Concentration [6]: 1 µg/mL; Half-Life ([7]; rat plasma, 20 mg/kg intravenously, bioassay, model-independent analysis): 5.57 h
2 | CCS(=O)(=O)Nc1cccc([C@@H](N)C(=O)N[C@@H]2C(=O)N3C(C(=O)O)=C(Cl)CC[C@H]23)c1 [Example 4, 7β-[2ʹ-(R)-2ʹ-(m-(Ethylsulfonamido)phenyl)-2ʹ-Aminoace amido)-3-Chloro-3-(1-Carba-1-Dethiacephem)-4-Carboxylic Acid, Zwitterionic Salt] | 2 µg/mL | 2 µg/mL | 2 µg/mL | 2 µg/mL | 12 | 0.683 h | 
3 | CS(=O)(=O)Nc1cccc([C@@H](N)C(=O)N[C@@H]2C(=O)N3C(C(=O)O)=C(Cl)CC[C@H]23)c1 [Example 2, 7β-[2ʹ-(R)-2ʹ-(m-(Methylsulfonamido)phenyl)-2ʹ-Aminoactamido]-3-Chloro-3-(1-Carba-1-Dethiacephem)-4-Carboxyli c Acid, Zwitterionic Salt] |  |  |  |  |  |  | Half-Life ([7]; rat, plasma, iv, 20 mg/kg): 5.28 h
4 | CCS(=O)(=O)Nc1cccc(C(N)C(=O)N[C@@H]2C(=O)N3C(C(=O)O)=C(Cl)CC[C@H]23)c1.O=C(O)C(F)(F)F (stereo partly drawn) [Example 3, 7β-[2ʹ-(R,S)-2ʹ-(m-(Ethylsulfonamido)phenyl)-2ʹ-Aminoaetamido]-3-Chloro-3-(1-Carba-1-Dethiacephem)-4-Carboxyl ic Acid Trifluoroacetate Salt] |  |  |  |  | 18 | 0.55 h | 
5 | CCCS(=O)(=O)Nc1cccc([C@@H](N)C(=O)N[C@@H]2C(=O)N3C(C(=O)O)=C(Cl)CC[C@H]23)c1 [Example 5, 7β-[2ʹ-(R)-2ʹ-(m-(n-Propylsulfonamido)phenyl)-2ʹ-Aminocetamido]-3-Chloro-3-(1-Carba-1-Dethiacephem)-4-Carboxy lic Acid, Zwitterionic Salt.] |  |  |  |  | 20 | 0.65 h | 
